In patent US20230390274A1 (EPIRIUM BIO INC., priority 2020, published 2023) one finds IC50 data, which are given here for 55 compounds.

Each structure is given as a SMILES string. Where only a bound is given, the exact number is not on record here.

Chain of 15-PGDH/HPGD (P15428 whole entry): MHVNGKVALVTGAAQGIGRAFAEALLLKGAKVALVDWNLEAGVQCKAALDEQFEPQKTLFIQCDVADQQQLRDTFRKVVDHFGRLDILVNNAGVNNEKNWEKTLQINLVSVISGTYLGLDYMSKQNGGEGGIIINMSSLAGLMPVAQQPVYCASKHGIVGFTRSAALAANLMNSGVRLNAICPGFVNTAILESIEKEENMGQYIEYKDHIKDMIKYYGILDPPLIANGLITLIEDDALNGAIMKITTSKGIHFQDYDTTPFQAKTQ

One test concerns the target 15-PGDH/HPGD (Homo sapiens (Human), UniProt P15428). Kind of test: hPGDH inhibitor screening biochemical assay. The note with it: 10 nM 15-PGDH/HPGD, 15 μM PGE2, 0.25 mM NAD; read-out: hPGDH: Average IC50. The method, then: A hydroxyprostaglandin dehydrogenase inhibition screening biochemical assay can be performed to assess the synthesized inhibitors provided herein. Provided herein is an exemplary biochemical assay for hPGDH inhibitor screening.
The in vitro biochemical assay can be performed in white, 384 plates in total 20 μl reaction volume consisting of 10 nM of 15-PGDH/HPGD (R&D System #5660-DH), 15 μM Prostaglandin E2 (Sigma, Cat #P5640-10MG) and 0.25 mM β-Nicotinamide adenine dinucleotide sodium salt (Sigma, Cat #N0632-5G) made in reaction buffer (50 mM Tris-HCl, pH 7.5, 0.01% Tween 20) at 10-point dose response curve for test/tool compounds. Briefly, 5 μl (4×) of compounds solution and 5 μl (final concentration, 10 nM) of enzyme solution is added to white 384 well plates and incubated for 10 mins at 37° C. 5 μl (4×) of Prostaglandin E2 and 5 μl (4×) of β-Nicotinamide adenine dinucleotide sodium salt is added to the wells and incubated for 10 mins at rt. Fluorescence is recorded at ex/em=340 nm/485 nm. The percentage (%) inhibition of enzyme activity was determined relative to […] (1% DMSO) and IC50 was calculated using GraphPad prism software (four parameter-variable slope equation).
As usually defined, the IC50 is the concentration at which inhibition is half-maximal. Turning to `CC(C)(C(N)=O)c1cncc(-n2ccc3cc(C(=O)N4CCC(F)(F)CC4)cnc32)c1` [A-277, 2-(5-(5-(4,4-difluoropiperidine-1-carbonyl)-1H-pyrrolo[2,3-b]pyridin-1-yl)pyridin-3-yl)-2-methylpropanamide], the IC50 was less than 100 nM.
Consider `CCNC(=O)c1ccc(-n2ccc3cc(C(=O)N4CCC(F)(F)CC4)cnc32)cc1` [A-225], for which the half-inhibitory concentration (IC50) is less than 100 nM.
Consider `O=C(c1cnc2c(ccn2-c2cnccn2)c1Cl)N1CCC(F)CC1` [A-172], for which the concentration for half-maximal inhibition (IC50) is less than 100 nM.
Consider `COc1ccc(-n2nnc3cc(C(=O)N4CCCCC4)ccc32)cc1` [A-313, (1-(4-methoxyphenyl)-1H-benzo[d][1,2,3]triazol-5-yl)(piperidin-1-yl)methanone], for which the IC50 was less than 100 nM.
Take `CCOc1ccc(-n2ccc3cc(C(=O)N4CCCCC4)cnc32)cc1` [A-151]: the 50% inhibitory concentration (IC50) was less than 100 nM.
With `COc1ccc(-n2ccc3c(C)c(C(=O)N4CCCCC4)cnc32)cc1` [A-321], the IC50 was less than 100 nM.
As for `O=C(c1cnc2c(ccn2-c2cc(Cl)cc(C(=O)N3CCS(=O)(=O)CC3)c2)c1)N1CCC(F)(F)CC1` [A-288], the IC50 was less than 100 nM.
As to `CS(=O)(=O)n1ccc2cc(C(=O)N3CCCCC3)cnc21` [A-110, (1-(methylsulfonyl)-1H-pyrrolo[2,3-b]pyridin-5-yl)(piperidin-1-yl)methanone], the half-inhibitory concentration (IC50) is no less than 1000 nM.
The same measure, in the same setting: the same measure for `O=C(c1ccc2c(c1)ncn2-c1cccc(Cl)c1)N1CCCCCC1` [A-2]: less than 100 nM; for `O=C(c1cnc2c(ccn2-c2ccc3[nH]ncc3c2)c1)N1CCCCC1` [A-119, (1-(1H-indazol-5-yl)-1H-pyrrolo[2,3-b]pyridin-5-yl)(piperidin-1-yl)methanone]: less than 100 nM; for `Cn1cc(-n2cc(Cl)c3cc(C(=O)N4CCC(F)CC4)cnc32)cn1` [A-59]: less than 100 nM.
For the compound `NS(=O)(=O)c1ccc(-n2ccc3cc(C(=O)N4CCC(F)(F)CC4)cnc32)cc1` [A-280], the 50% inhibitory concentration (IC50) is less than 100 nM.
On the same count and under the same terms, the same measure for `COc1ccc(-n2ccc3cc(C(=O)N4CCC(F)CC4)cnc32)cn1` [A-61]: less than 100 nM; for `COc1ccccc1C(=O)Nc1ccc(C(=O)N2CCCCC2)cc1` [A-80]: less than 100 nM.
For the compound `O=C(c1ccc2c(cnn2-c2cccc(Cl)c2)c1)N1CCCCC1` [A-93, (1-(3-chlorophenyl)-1H-indazol-5-yl)(piperidin-1-yl)methanone], the IC50 was less than 100 nM.
The same measure, in the same setting: the same measure for `COc1ccc(-n2ccc3c(C#N)c(C(=O)N4CCCCC4)cnc32)cc1` [A-323, 1-(4-methoxyphenyl)-5-(piperidine-1-carbonyl)-1H-pyrrolo[2,3-b]pyridine-4-carbonitrile]: less than 100 nM.
Same read-out and setting: the same measure for `CNC(=O)c1cncc(-n2ccc3cc(C(=O)N4CCCCC4)cnc32)c1` [A-349]: less than 100 nM; for `COc1ccc(-n2ccc3c(N)c(C(=O)N4CCCCC4)cnc32)cc1` [A-324, (4-amino-1-(4-methoxyphenyl)-1H-pyrrolo[2,3-b]pyridin-5-yl)(piperidin-1-yl)methanone]: less than 100 nM; for `CN(C)c1cccc(-n2ccc3cc(C(=O)N4CCCCC4)cnc32)c1` [A-149]: less than 100 nM.
For `NC(=O)c1ccc(-n2ccc3cc(C(=O)N4CCC(F)CC4)cnc32)cn1` [A-347], the IC50 is less than 100 nM.
Consider `O=C(c1cnc2c(ccn2-c2ccn3ccnc3c2)c1)N1CCCCC1` [A-112], for which the IC50 was less than 100 nM.
The same measure, in the same setting: the same measure for `Cc1nc(-c2cccc(-n3ccc4cc(C(=O)N5CCCCC5)cnc43)c2)no1` [A-214]: less than 100 nM; for `COc1ccc(-n2cnc3cc(C(=O)N4CCCCC4)ccc32)cc1Cl` [A-36, (1-(3-chloro-4-methoxyphenyl)-1H-benzo[d]imidazol-5-yl)(piperidin-1-yl)methanone]: less than 100 nM.
As for `O=C(O)Cc1ccc(-n2ccc3cc(C(=O)N4CCC(F)(F)CC4)cnc32)cc1` [A-230, 2-(4-(5-(4,4-difluoropiperidine-1-carbonyl)-1H-pyrrolo[2,3-b]pyridin-1-yl)phenyl)acetic acid], the IC50 was less than 100 nM.
For the compound `O=C(c1cnc2c(c1)c(Cl)cn2-c1ccc2c(c1)OC(F)(F)O2)N1CCC(F)CC1` [A-167], the IC50 was less than 100 nM.
For the compound `O=C(NC1CCS(=O)(=O)CC1)c1cc(Cl)cc(-n2ccc3cc(C(=O)N4CCC(F)(F)CC4)cnc32)c1` [A-272], the IC50 is less than 100 nM.
Still for that read-out and setting: the same measure for `NC(=O)c1cccc(-n2ccc3cc(C(=O)N4CCC(F)CC4)cnc32)c1` [A-123]: less than 100 nM.
In the case of `O=C(c1ccc(COc2ccccc2-c2cnc[nH]2)cc1)N1CCCCC1` [A-78], the IC50 is less than 100 nM.
With `CC(C)(C)NC(=O)c1cncc(-n2ccc3cc(C(=O)N4CCC(F)(F)CC4)cnc32)c1` [A-246, N-(tert-butyl)-5-(5-(4,4-difluoropiperidine-1-carbonyl)-1H-pyrrolo[2,3-b]pyridin-1-yl)nicotinamide], the half-inhibitory concentration (IC50) was less than 100 nM.
Turning to `COc1ccc(Cn2ncc3cc(-n4ccc5cc(C(=O)N6CCCCC6)cnc54)ccc32)cc1` [A-120], the half-maximal inhibitory concentration (IC50) is less than 100 nM.
As for `COc1ccc(-n2c(CCC(C)(C)O)cc3cc(C(=O)N4CCCCC4)cnc32)cc1` [A-326, (2-(3-hydroxy-3-methylbutyl)-1-(4-methoxyphenyl)-1H-pyrrolo[2,3-b]pyridin-5-yl)(piperidin-1-yl)methanone], the IC50 was less than 100 nM.
On the same count and under the same terms, next, `CS(=O)(=O)NC(=O)c1ccc(-n2ccc3cc(C(=O)N4CCC(F)(F)CC4)cnc32)cc1` [A-232, 4-(5-(4,4-difluoropiperidine-1-carbonyl)-1H-pyrrolo[2,3-b]pyridin-1-yl)-N-(methylsulfonyl)benzamide]: less than 100 nM; `O=C(c1cnc2c(ccn2-c2cncc(N3CCOC3=O)c2)c1)N1CCC(F)(F)CC1` [A-267]: less than 100 nM; `NC(=O)c1ccc(-n2ccc3cc(C(=O)N4CCC(F)(F)CC4)cnc32)cc1` [A-126]: less than 100 nM.
`O=C(c1ccc2c(c1)ncn2-c1cccc(Cl)c1)N1CCC(Cl)C1` (stereo not shown) [A-12]: the half-maximal inhibitory concentration (IC50) was less than 100 nM.
As for `CCC(CC)n1cnc2cc(C(=O)N3CCC(F)CC3)cnc21` [A-176], the IC50 was no less than 1000 nM.
The same measure, in the same setting: the same measure for `O=C(NC1(C(=O)O)CC1)c1ccc(-n2ccc3cc(C(=O)N4CCC(F)(F)CC4)cnc32)cn1` [A-234, 1-(5-(5-(4,4-difluoropiperidine-1-carbonyl)-1H-pyrrolo[2,3-b]pyridin-1-yl)picolinamido)cyclopropane-1-carboxylic acid]: less than 100 nM; for `O=C(c1ccc(COc2ccccc2-c2ccccn2)cc1)N1CCCCC1` [A-77]: less than 100 nM; for `NC(=O)CCc1nc2cc(C(=O)N3CCCCC3)ccc2n1-c1cccc(Cl)c1` [A-31]: less than 100 nM.
On the same count and under the same terms, next, `CC(C)(C)CNC(=O)c1cncc(-n2ccc3cc(C(=O)N4CCC(F)(F)CC4)cnc32)c1` [A-217, 5-(5-(4,4-difluoropiperidine-1-carbonyl)-1H-pyrrolo[2,3-b]pyridin-1-yl)-N-neopentylnicotinamide]: less than 100 nM; `COc1ccc(-n2c(C)nc3cc(C(=O)N4CCCCC4)cnc32)cc1` [A-197]: less than 100 nM.
On to `CS(=O)(=O)c1cccc(-n2ccc3cc(C(=O)N4CCCCC4)cnc32)c1` [A-152], for which the IC50 is less than 100 nM.
Same read-out and setting: next, `COc1ccc(-n2cnc3cc(C(=O)N4CCC(F)(F)CC4)cnc32)cc1` [A-65]: less than 100 nM; `O=C(c1ccc2c(c1)ncn2-c1cccc(Cl)c1)N1CCC(O)C1` (stereo not shown) [A-13]: no less than 1000 nM.
With `O=C(c1cnc2c(c1)ncn2-c1cccc(Cl)c1)N1CCCCC1` [A-62], the 50% inhibitory concentration (IC50) was less than 100 nM.
On the same count and under the same terms, next, `O=C(c1cnc2c(ccn2-c2cccc(C(=O)N3CCS(=O)(=O)C3)c2)c1)N1CCC(F)(F)CC1` [A-281, (4,4-difluoropiperidin-1-yl)(1-(3-(1,1-dioxidothiazolidine-3-carbonyl)phenyl)-1H-pyrrolo[2,3-b]pyridin-5-yl)methanone]: less than 100 nM.
For the compound `O=C(c1ccc2c(c1)CCCN2c1cccc(Cl)c1)N1CCCCC1` [A-91, (1-(3-chlorophenyl)-1,2,3,4-tetrahydroquinolin-6-yl)(piperidin-1-yl)methanone], the IC50 is less than 100 nM.
Still for that read-out and setting: the same measure for `O=C(Nc1cncc(-n2ccc3cc(C(=O)N4CCC(F)(F)CC4)cnc32)c1)c1ccno1` [A-256]: less than 100 nM; for `NC(=O)c1cncc(-n2ccc3cc(C(=O)N4CCCCC4)cnc32)c1` [A-348]: less than 100 nM.

The same test, now with this note: Table 1, PGDH inhibitors with a 6-5 ring core; read-out: hPGDH: IC50.
Consider `O=C(c1ccc2c(c1)ncn2-c1cccc(Cl)c1)N1CCC(F)(F)CC1` [drawing 96], for which the IC50 worked out at 12.2 nM.
The same measure, in the same setting: next, `COc1ccc(-n2c(C3CC3)nc3cc(C(=O)N4CCCCC4)ccc32)cc1`: 197 nM; `COc1ccc(-n2cnc3cc(C(=O)N4CCC(F)(F)CC4)cnc32)cc1` [drawing 78]: 57.4 nM.
As to `COc1ccc(-n2cnc3cc(C(=O)N4CCCCC4)ccc32)cc1` [drawing 110], the half-inhibitory concentration (IC50) was 6.4 nM.
As to `O=C(c1cnc2c(-c3cccc(Cl)c3)cnn2c1)N1CCCCC1` [drawing 107], the half-inhibitory concentration (IC50) was 49.3 nM.

Still in this test, the particulars now being: Table 2, PGDH inhibitors with a phenyl core; read-out: hPGDH: IC50.
Take `COc1ccccc1C(=O)Nc1ccc(C(=O)N2CCCCC2)cc1` [drawing 118]: the IC50 came to 27.1 nM.
